Point of comparison: `Fc1cccc2c(NCCc3ccc(Oc4ccc(C(F)(F)F)cn4)cc3)ncnc12`, melting point 152 °C. Against it:
- CC(=NO)NC/C(F)=C\CC[C@H](N)C(=O)O — higher, 198 to 200 °C
- Clc1ccc2c(C3=CCN(CCCOc4cccc5[nH]ccc45)CC3)c[nH]c2c1Cl — higher, 224 to 227 °C
- FC(F)(F)c1cccc(Nc2ccccc2-c2n[nH]c(=S)[nH]2)c1 — higher, 275 to 279 °C
- C=CCC(C#N)(C#N)Cc1ccc(C(F)(F)F)cc1 — lower, 80.2 °C
- O=C(O)C(=NO)C(c1ccc(OCc2ccc3cc(F)ccc3n2)cc1)c1ccc(OCc2ccc3cc(F)ccc3n2)cc1 — lower, 107 °C
- N#CC1CN1C(=O)NC(=O)C(Cl)(Cl)Cl (stereo not drawn) — not separable, 150 to 152 °C
- O=C(NCc1cccnc1)c1ccc2n1Cc1ccccc1N(C(=O)COc1ccc(Cl)cc1)C2 — higher, 169 to 171 °C
- CC(=O)NC[C@H]1CN(c2ccc(C(=O)c3cnc4ccc(C#N)cn34)cc2)C(=O)O1 — higher, 224 to 226 °C
- CCCCNC(=O)NCC1CCN(c2ncnc3cc(OC)c(OC)cc23)CC1 — lower, 141 to 143 °C
- COc1ccc2cc([C@H](C)C(=O)OCC(=O)N(C)CC(=O)OC(C)(C)C)ccc2c1 — lower, 103 to 104 °C
- CCOC(=O)/C=C/c1cnn(Cc2ccc(OCc3nc(-c4ccccc4)oc3C)cc2)c1 — lower, 112 to 113 °C
- Cc1oc(-c2ccccc2)nc1COc1ccc(COc2cncc(CO)c2)cc1 — lower, 128 to 130 °C
- C=C(C(N)=O)N1CCC(c2ccc(OC(C)=O)c(OC)c2)C1c1ccccc1 (stereo not drawn) — lower, 113 to 116 °C
- O=C(O)/C=C/C=C(c1ccc(Cl)cc1)c1ccc(Cl)cc1 — higher, 213 to 215 °C
- CS(=O)(=O)Nc1ccc(OCCCCl)cc1 — lower, 120 to 122 °C
- CCOC(=O)/C=C(C)/C=C/C(Br)=C(/C)c1ccc2c(c1)C(C)(C)CCC2(C)C — lower, 97 to 98.5 °C
- COc1ccc(-n2nc(Sc3cccc(OC)c3)c(C)c(C#N)c2=O)cc1 — lower, 143 to 144 °C
- O=C(O)CCCC1Cc2ccccc2C1 — lower, 75 °C
- CCN1c2ncc(CSc3ccncc3)cc2C(=O)N(C)c2ccc(Cl)nc21 — lower, 140 to 142 °C
- OCc1cc(I)cc(I)c1 — lower, 136 to 140 °C
- CN1CCN2c3ncc(Br)cc3Cc3ccccc3C2C1 (stereo not drawn) — lower, 126 to 128 °C
- O=c1[nH]c2ccc(Br)cc2c(=O)n1CCCS — higher, 220 to 221 °C
- COc1c(C)cc(C)cc1CCC(=O)O — lower, 74 to 75 °C
- Cc1c(C(=O)Nc2ccc(N3CCN(CCO)CC3)c(C#N)c2)cnn1-c1ccc(F)cc1F — lower, 149 to 151 °C
- Cn1c2c(c3ccccc31)OCC2=O — lower, 113 to 116 °C
- N#Cc1ccc2oc(CCCc3cc4cc(C#N)ccc4o3)cc2c1 — higher, 153 to 154 °C
- O=COCc1ccc2c(c1)C(C(Cl)(Cl)Cl)OC(C(Cl)(Cl)Cl)O2 (stereo not drawn) — lower, 75 to 77 °C
- Nc1cc2cccnc2c(-c2cccc([N+](=O)[O-])c2)n1 — higher, 221 to 223 °C
- CC(NC(=O)Oc1cccc2c1C1(C)CCN(C)C1N2C)c1ccccc1 (stereo not drawn) — not separable, 151 to 155 °C
- COc1ccc(N2CCN(c3c(C)c(C)c4c(c3C)C(c3ccc(C)cn3)C(C)(C)O4)CC2)cc1 (stereo not drawn) — higher, 186 to 187 °C
- O=c1c2ccc(Cl)cc2[nH]c2c(O)nn(C3CCOc4ccccc43)c(=O)c12 (racemic) — higher, > 300 °C
- CNC1=NN(c2ccc(Cl)cc2)C(C)C1 (stereo not drawn) — lower, 102 to 103 °C
- CCOCC(COCC)Oc1ccc(/C=C/CO)c(Oc2ncc(C(F)(F)F)cc2Cl)c1 — lower, 52.5 to 54.5 °C
- Nc1ccc(-c2nccc3[nH]c(=O)ccc23)cc1 — higher, 309 to 312 °C
- COC(=O)C1C=CCN2C(=O)C(CCOS(C)(=O)=O)(Cc3ccccc3)C(=O)N12 (stereo not drawn) — higher, 161 to 163 °C
- CCOC(=O)c1cc2cc(OC(F)(F)F)cc(NS(=O)(=O)c3cccs3)c2[nH]1 — higher, 192 to 193 °C
- COC(=O)CCCc1cc2nc(Cl)ccc2n1S(=O)(=O)c1ccc(Cl)cc1Cl — lower, 100 to 101 °C
- CCOC(=O)c1nc(-c2ccc(F)cc2)[nH]c1CC — higher, 197 to 198 °C
- O=C(O)c1cn(-c2ccc(F)cn2)c2nc(Cl)c(F)cc2c1=O — higher, 234 to 238 °C
- O=c1[nH]c(=O)n2c3c(cccc13)Sc1ccc(C(F)(F)F)cc1-2 — higher, 278 to 280 °C
- c1cc(-c2ccc(N3CCNCC3)nc2)nc(Nc2ccc3cc[nH]c3c2)n1 — higher, 201 to 203 °C
- Cc1ccc2c(c1)c1c(n2Cc2ccc(F)cc2)CCCC1=O — higher, 210 °C
- CCOC(=O)C1=C(C)NC(C)=C(c2nnco2)C1c1cccc(Cl)c1Cl (stereo not drawn) — higher, 187 to 189 °C
- O=C(NC(Cc1ccc(OCc2ccccc2)cc1)C(=O)O)c1cc2ccc(-c3ccc(Cl)cc3)cc2s1 (stereo not drawn) — higher, 237 to 239 °C
- CC(=O)OCc1cc(Cl)ccc1Sc1ccccc1CN(C)C — lower, 41 to 44 °C
- Brc1ccc2c(c1)OC(c1ccccc1)(c1ccccc1)O2 — lower, 88 to 89 °C
- CCCCc1ncc(CC(NC(=O)C(c2ccccc2)c2ccccc2)C(=O)O)n1Cc1ccccc1Cl (stereo not drawn) — higher, 222 to 225 °C
- O=C1CCC2(CC1)CC(=O)c1ccccc1C2 — higher, 158 to 160 °C
- CC(=O)c1cccc(Nc2ccc3ccccc3n2)c1 — higher, 181 to 183 °C
- CC(C)(C)c1ccc(-c2cc3ccc(C(=O)O)cc3o2)cc1 — higher, 294 °C
- O=C(NC(Cc1ccc(OCc2ccoc2)cc1)C(=O)O)c1cn2cc(-c3ccc(Cl)cc3)ccc2n1 (stereo not drawn) — higher, 262 °C
- CSc1ccc([N+](=O)[O-])cc1C(F)(F)F — lower, 50 °C
- O=C(NCC(=O)C(F)(F)F)c1cnc(OCC(F)(F)F)c(-c2ccc(Cl)c(Cl)c2)c1 — lower, 122 to 124 °C
- Clc1ccc(Sc2cc(NCCN3CCOCC3)nc(-c3ccc(Cl)cc3)n2)cc1 — higher, 159 to 161 °C
- Clc1cccc(OCC(Cn2ccnc2)Sc2c(Cl)cccc2Cl)c1Cl (stereo not drawn) — lower, 135 to 136 °C
- CC(C)c1cccc(C(C)C)c1NC(=O)Nc1cccc2ccc(Oc3ccc4nc(COc5ccc(CC6SC(=O)NC6=O)cc5)n(C)c4c3)cc12 (stereo not drawn) — higher, 164 to 169 °C
- COC(=O)C1CN=CN(C)C1 (stereo not drawn) — lower, 93 to 95 °C
- CC[C@@H](c1ccccc1)N(Cc1ccc(C(=O)O)c(F)c1F)S(=O)(=O)c1ccc(Cl)cc1 — lower, 127 to 129 °C
- CCn1c(=O)c2c(nc(/C=C/c3ccc(OC(C)=O)c(OC)c3)n2C)n(CC)c1=O — higher, 194 to 195 °C
- CNc1c(C#N)c(C(F)(F)F)nn1-c1c(Cl)cc(C(F)(F)F)cc1Cl — higher, 200 to 202 °C
- CCOC(=O)c1cc(=O)c2cccc(COc3ccc(OCc4ccc5ccccc5n4)cc3)c2o1 — lower, 124 to 127 °C
- Cc1cc(Cl)c(C)c(C(=O)O)c1 — higher, 168 to 170 °C
- O=C(O)C(Cc1ccccc1)Oc1ccc(-c2ccc(-c3c(Cc4ccccc4)oc4cccnc34)cc2)cc1 (stereo not drawn) — lower, 85 to 88 °C
- Fc1ccc(N2CCN(Cc3cn4cc(Cl)cc(Cl)c4n3)CC2)cc1 — lower, 126 to 128 °C
- COc1cc2c(cc1OC)CC(=O)N(CCCI)C=C2 — lower, 132 to 134 °C
- O=C(Nc1cccc(C(F)(F)F)c1)c1cccc2cc(OS(=O)(=O)C(F)(F)F)ccc12 — higher, 177 to 178 °C
- COc1ccc(/C=C/c2cc(/C=C/c3ccc4[nH]ccc4c3)n[nH]2)cc1OCc1ccccn1 — lower, 109 to 118 °C
- COc1cc(C=CC(=O)Nc2cnc3ccc(C)cc3c2-c2ccccc2Cl)cc(OC)c1O — higher, 235 to 236 °C
- CC(=O)NNC(COCc1cc(C)cc(C)c1)C1c2ccccc2C=Cc2ccccc21 (stereo not drawn) — lower, 115 to 117 °C
- COc1ccc(OC)c2c(Nc3ccc(C)c(O)c3)c(C#N)cnc12 — higher, 240 to 242 °C
- COc1cc2c(cc1C=O)OCC2 — lower, 82 to 84 °C
- COC(=O)CCn1nnnc1C1N2C(=O)C(NC(c3ccccc3)(c3ccccc3)c3ccccc3)C2SC1(C)C (stereo not drawn) — lower, 94 to 98 °C
- CCn1ncc(C(=O)c2ccc(S(C)(=O)=O)c(-c3ccccc3C)c2C)c1O — higher, 179 to 180 °C
- O=S(=O)(NCc1ccnc2ccccc12)c1ccc(-c2cc(Cl)ccc2Cl)cc1 — lower, 124 °C
- C=CCSc1nc(N)n(-c2nnc(-c3ccccc3O)s2)n1 — higher, 222 to 223 °C
- O=C(OCCc1ccccc1)c1ccc2c(O)c(O)ccc2c1 — higher, 164 to 166 °C
- O=Cc1c(O)ccc2ncccc12 — lower, 136 to 137 °C
- CCCCCCCCCCCCCCCCSC(=O)Nc1ccc(NC(=O)NS(=O)(=O)c2ccc3ccccc3c2)cc1 — higher, 190 °C
- Cc1ccc(C)c(-c2nn(C(C)(C)C(=O)N(C)C)cc2C)c1 — lower, 93 to 95 °C
- CC(=O)N(C(C)=O)c1csc(Br)n1 — lower, 63 to 65 °C
- CC(=O)NC[C@H]1CN(c2ccc(N3CCN(C(=O)CO)CC3)c(F)c2)C(=O)O1 — lower, 87 to 90 °C
- COc1cc(C)nc(S(C)(=O)=O)n1 — lower, 80 °C
- Cc1c(C(=O)O)oc2cc(OCCNC[C@H](O)COc3ccccc3)ccc12 — lower, 110 to 111 °C
- COc1cc(C(=O)N(C(C)C)C2CCCCC2)ccc1CN(C(=O)CCl)c1cccnc1O — lower, 127 to 129 °C
- CS(=O)(=O)c1ccc(N2CC(O)(C(F)(F)F)N=C2c2ccccc2)cc1 (stereo not drawn) — higher, 189 to 190 °C
- NC(=O)c1ccc(Cl)c2c1C=C([N+](=O)[O-])CO2 — higher, 225 to 227 °C
- CN(C(=N)Nc1cccc2ccccc12)c1cccc2ccccc12 — higher, 249 to 250 °C
- CC12CCC3C(CCC4CC(=O)CCC43C)C1CC=C2c1cccnc1 (stereo not drawn) — higher, 190 to 192 °C
- OCCNc1nc(NCCO)nc(Nc2ccccc2Cl)n1 — lower, 108 to 110 °C
- COc1cc2c(cc1OCc1ccccc1)CCNC2c1ccccc1 (stereo not drawn) — lower, 118 to 119 °C
- O=C(CSCc1c[nH]c2ccccc12)N1CC=C(c2cccc(F)c2)CC1 — lower, 130 to 131 °C
- Cn1cc2c(nc(NC(=O)Nc3ccc(CC(=O)NCCCCNC(=O)OC(C)(C)C)cc3)n3nc(-c4ccco4)nc23)n1 — higher, 186 to 193 °C
- CCOC(=O)CCNC(=O)n1nc(Oc2c(Cl)cc(C(F)(F)F)cc2Cl)cc1C — lower, 73 to 74 °C
- CC12CCC(=O)C=C1CCC1C3CC(OCC4CO4)C(O)(C(=O)CO)C3(C)CC(O)C12F (stereo not drawn) — higher, 191 to 192 °C
- CC(C)(C)OC(=O)NC1CCN(c2ccc(C#N)cc2)CC1 — higher, 188 to 189 °C
- NC(=O)c1nc(N)nc(N)c1-c1ccc(Cl)cc1Cl — higher, 298 to 299 °C
- C=Cc1c(C(=O)OC)cccc1[N+](=O)[O-] — lower, 44 to 45 °C

From a melting point compilation (Tetko et al.; mined from patent text by program, amines drawn as free bases though some values may be those of a salt)
